Measurements from US12491248B2, “Method for generating immunoregulatory cells in a blood-derived sample” (Therakos Development Limited, priority 2019, dated 2025).

How the values were obtained:
[1] = test system: B16 melanoma cells; assay: Survival of melanoma-bearing mice treated with anti-PD1; assay type: in vivo; conditions: combined with anti-PD1, compared to anti-PD1 only
Method: FIG. 7: • (a) Treatment schedule: Mice were injected iv with B16 melanoma cells and afterwards treated with anti-PD1, prednisolone or ECP as indicated. • (b) Survival of mice injected iv with B16 melanoma cells and afterwards treated with anti-PD1, prednisolone or ECP.
To understand if the immunomodulatory effect of ECP was connected to a loss of anti-tumor activity we next treated melanoma bearing mice with anti-PD1 alone or in combination with the glucocorticoid prednisolone or ECP (FIG. 7A). We observed that prednisolone reduced the survival of melanoma-bearing mice compared to the group treated with anti-PD1 only (FIG. 7B).

[2] = test system: immune checkpoint inhibitor-related colitis; assay: Immunosuppressive drug treatment of the patient's colitis episodes before ECP; assay type: in vivo, human
Method: (§1) A patient was treated with ipilimumab and nivolumab for metastatic melanoma. […] Colitis was diagnosed based on macroscopic mucosal ulcerations and intraepithelial apoptosis and crypt loss identified in the biopsy (FIG. 1a,b). While dermatitis, thyroiditis and hepatitis resolved after stopping ipilimumab/nivolumab and corticosteroid treatment, the patient experienced three colitis episodes within the next 20 weeks (CTC-AE II-III°). These were treated with corticosteroids (in total 23 weeks prior to ECP), infliximab (2 single doses 18 and 15 weeks prior to ECP) and cyclosporine (14 weeks prior to ECP, FIG. 1a and Table 1).
The patient had their first episode of colitis 20 weeks prior to the start of ECP. At that time point they had been treated for 3 weeks with steroids for their previous immune checkpoint inhibitor-related hepatitis, thyroiditis and dermatitis. The colitis occurred during tapering of the steroids. Therefore, the steroid dose was increased and due to an insufficient response, infliximab 5 mg/kg BW was administered once. […] Upon steroid tapering, the patient experienced their second episode of colitis, 16 weeks prior to begin of ECP. They were treated with an increased dose of methylprednisolone and a second dose of infliximab. The diarrhea was refractory to this therapy and consequently cyclosporine A was added. […] Here, ECP treatment was initiated. […]

[3] = Adverse events of ipilimumab and nivolumab in the metastatic melanoma patient; assay type: in vivo, human; conditions: after two doses of ipilimumab and nivolumab
Method: as §1

For `C[C@]12C=CC(=O)C=C1CC[C@@H]1[C@@H]2[C@@H](O)C[C@@]2(C)[C@H]1CC[C@]2(O)C(=O)CO` [prednisolone], the “survival of melanoma-bearing mice” value [1] was “reduced”.

In the case of infliximab: anti-TNF antibody, the “diarrhea, second episode” value ([2]; increased dose of methylprednisolone and a second dose of infliximab) is reported as “refractory” and the “colitis symptoms, first episode” value ([2]; infliximab 5 mg/kg BW once, added to increased steroid dose) is reported as “symptoms resolved”.

For “ipilimumab: antagonistic antibody directed against CTLA4”, the “immune-related adverse events developed” value [3] was “dermatitis, thyroiditis, hepatitis and colitis”.

For “nivolumab: antagonistic anti-PD-1 antibody”, the “immune-related adverse events developed” value [3] was “dermatitis, thyroiditis, hepatitis and colitis”.
